The target in one test is T1, recombinant HDAC8 (Homo sapiens, UniProt Q9BY41).
T1 sequence (Q9BY41 1-377): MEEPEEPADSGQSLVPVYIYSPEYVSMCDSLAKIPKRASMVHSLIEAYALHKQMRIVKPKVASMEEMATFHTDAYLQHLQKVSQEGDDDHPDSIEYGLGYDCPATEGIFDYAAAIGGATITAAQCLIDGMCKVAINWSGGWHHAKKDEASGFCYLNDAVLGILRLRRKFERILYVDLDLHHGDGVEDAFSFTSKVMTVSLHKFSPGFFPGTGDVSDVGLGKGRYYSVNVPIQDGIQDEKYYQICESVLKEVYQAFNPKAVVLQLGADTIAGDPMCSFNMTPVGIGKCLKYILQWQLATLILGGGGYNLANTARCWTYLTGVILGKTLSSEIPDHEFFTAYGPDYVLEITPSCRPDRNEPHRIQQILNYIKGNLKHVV
Nature of the test: Histone deacetylase 8 inhibitory assay. The following applies: 10 μM. The class given is biochemical.

Test [1] deals with tested cancer cell lines (HepG2, Hep2, HCT116, RD, MCF7). Nature of the test: In vitro cytotoxicity, summary statements over tested cancer cell lines. The class given is cell-based, human.
In another test the test system is bovine brain tubulin. Nature of the test: Tubulin polymerization assay. It is filed as biochemical. As to conditions: 10 μM.
Setting [2] is: Homo sapiens, RD, read-out: IC50 against cancer cell lines.

Read-outs that look alike come from different tables or passages of the source.

Usually IC50 stands for the concentration needed to halve the response being measured.

In the case of `O=Cc1ccc(CO)o1` [5-(hydroxymethyl)-2-furaldehyde], the “Percentage inhibition HDAC8 activity” value at recombinant HDAC8 is below 30%.

For the molecule `Nc1ncnc2c1ncn2[C@@H]1O[C@H](CO)[C@@H](O)[C@H]1O` [Adenosine, adenosine], the “Percentage inhibition HDAC8 activity” value on recombinant HDAC8 is recorded as “stimulated HDAC8 activity”.

Consider `O=c1ccc2ccc3occc3c2o1` [Angelicin, angelicin], for which, in test [1] (setting [2]), the IC50 is below 20 µM. Besides, the “SI against cancer cell lines” value in test [1] (tested cancer cell lines (extract and quercetin: except RD cells)) is above 7.

For `O=C(/C=C/c1ccc(O)c(O)c1)O[C@@H]1C[C@](O)(C(=O)O)C[C@@H](O)[C@H]1O` [Chlorogenic acid, chlorogenic acid], the “Percentage inhibition tubulin polymerization” value in the test with bovine brain tubulin was “moderate inhibition”.

Turning to `CC(=O)OC1c2c(ccc3ccc(=O)oc23)OC(C)(C)C1OC(=O)C(C)(O)C(C)O` (stereo not shown) [Hyuganin E, hyuganin E], the “SI (good selectivity), Hep2, HCT116, and MCF7” value in test [1] (Hep2, HCT116, and MCF7) was above 3. For the same molecule, the IC50 in test [1] (read-out: IC50 values against Hep2, HCT116, and MCF7, Hep2, HCT116, and MCF7) was below 25 µM.

With `O=c1cc(-c2ccc(O)c(O)c2)oc2cc(O)cc(O)c12` [Luteolin, luteolin], the IC50 in test [1] (setting [2]) was below 20 µM.

As for `O=c1c(O)c(-c2ccc(O)c(O)c2)oc2cc(O)cc(O)c12` [Quercetin, quercetin], the IC50 in test [1] (setting [2]) was below 20 µM.

As for `CC[C@H](CC[C@@H](C)[C@H]1CC[C@H]2[C@@H]3CC=C4C[C@@H](O[C@@H]5O[C@H](CO)[C@@H](O)[C@H](O)[C@H]5O)CC[C@]4(C)[C@H]3CC[C@]12C)C(C)C` [β-Sitosterol-3-O-glucoside, β-sitosterol-3-O-glucoside], the “Percentage inhibition HDAC8 activity” value on recombinant HDAC8 is “stimulated HDAC8 activity”.

(Values after PMC4787089 (Pharmacognosy Magazine, 2015).)
